# Measured values published in patent US8178506B2, “Oligomeric compounds and compositions for use in modulation of small non-coding RNAs” (Regulus Therapeutics Inc., priority 2003, dated 2012).
# In the oligonucleotide strings, read from the 5' end, every base follows the letter of its sugar. An asterisk marks phosphorothioate; unmarked linkages are phosphodiester. Other units and linkages are bracketed, terminal groups are in braces. A string of capitals states the bases alone. e = 2'-O-(2-methoxyethyl) (MOE); [5mC] = 5-methylcytosine
# Experiments:
# IL-12 mRNA = IL-12 mRNA in LPS-activated primary murine macrophages; type: cell-based, mouse; settings: normalized to LPS-treated cells without oligomeric compound
# Experimental: To investigate the role of miRNAs in the immune response, oligomeric compounds of the present invention targeting miRNAs were tested for their effects upon lipopolysaccharide (LPS)-activated primary murine macrophages. Macrophages participate in the immune response, for example, in the recognition and phagocytosis of microorganisms, including bacteria. Interferon-gamma (IFN-gamma) released by helper T cells is one type of signal required for macrophage activation, and LPS can serve as an additional stimulus. LPS is a component of the gram-negative bacterial cell wall and acts as an agonist for toll-like receptor 4 (TLR4), the primary LPS receptor expressed by macrophages. The proinflammatory cytokines interleukin-12 (IL-12) and interleukin-6 (IL-6) are induced by LPS treatment of macrophages, thus the expression of the mRNAs encoding these cytokines was used to evaluate the response of macrophages to LPS following treatment with oligomeric compounds targeting miRNAs.
# Macrophages were isolated as follows. Female C57B1/6 mice (Charles River Laboratories, Wilmington, Mass.) were injected intraperitoneally with 1 ml 3% thioglycollate broth (Sigma-Aldrich, St. Louis, Mo.), and peritoneal macrophage cells were isolated by peritoneal lavage 4 days later. The cells were plated in 96-well plates at 40,000 cells/well for one hour in serum-free RPMI adjusted to contain 10 mM HEPES (Invitrogen Life Technologies, Carlsbad, Calif.), allowed to adhere, then non-adherent cells were washed away and the media was replaced with RPMI containing 10 mM HEPES, 10% FBS and penicillin/streptomycin (“complete” RPMI; Invitrogen Life Technologies, Carlsbad, Calif.).
# Oligomeric compounds were introduced into the cells using the non-liposomal transfection reagent FuGENE 6 Transfection Reagent (Roche Diagnostics Corp., Indianapolis, Ind.). Oligomeric compound was mixed with FuGENE 6 in 1 mL of serum-free RPMI to achieve a concentration of 10 μL FuGENE per 1000 nM oligomeric compound. The oligomeric compound/FuGENE complex was allowed to form at room temperature for 20 minutes. This mixture was diluted to the desired concentration of oligomeric compound by the addition of the appropriate volume of complete RPMI. The final ratio of FuGENE 6 to oligomeric compound was 1 μL of FuGENE 6 per 100 nM oligomeric compound. A volume of 100 μL of oligomeric compound/FuGENE/RPMI was added to each well of the 96-well plate in which the macrophages were cultured. Each oligomeric compound treatment was repeated in triplicate.
# Following oligomeric compound treatment, cells were stimultated with LPS. Cells were cultured in the presence of the transfection complex for approximately 24 to 28 hours at 37° C. and 5% CO2, after which the medium containing the transfection complex was removed from the cells, and complete RPMI containing 100 ng/mL LPS (Sigma-Aldrich Corp., St. Louis, Mo.) was added to the cells for a period of approximately 24 hours. Control samples included (1) cells receiving no oligomeric compound, stimulated with LPS and (2) cells receiving neither oligomeric compound nor LPS treatment.
# In another embodiment, following oligomeric compound treatment, cells were first activated by IFN-gamma, to amplify the response to LPS. Cells were cultured in the presence of the transfection complex for approximately 24 hours at 37° C. and 5% CO2, at which point the medium containing the transfection complex was removed from the cells, and complete RPMI containing 100 ng/mL recombinant mouse IFN-gamma (R&D Systems, Minneapolis, Minn.) was added to the cells. After the 4 hour treatment with INF-gamma, cells were treated with 100 ng/mL LPS for approximately 24 hours. Control samples included (1) cells receiving no oligomeric compound, stimulated with LPS and (2) cells receiving neither oligomeric compound nor LPS treatment. […]
# HuVECs = experiment: Endothelial tube formation assay in HuVECs; settings: for % Activity Relative to UTC (tube formation): 75 nM oligomeric compound; for tube formation: 75 nM
# [1] = tested on: BJ, B16-F10, T47D, T47Dp53 and HeLa cells; experiment: Cell cycle assay (propidium iodide flow cytometry), cell line panel; type: cell-based; settings: 150 nM oligomeric compound, 4.5 μg/ml LIPOFECTIN, after 72 hours, propidium iodide flow cytometry
# HeLa cells = experiment: Cell cycle assay in HeLa cells; type: cell-based, human; settings: HeLa cells, 150 nM oligomeric compound
# adipocytes = experiment: Triglyceride accumulation assay in adipocytes; type: cell-based, human; settings: differentiating adipocytes transfected with oligomeric compound
# aP2 = aP2 mRNA expression in adipocytes (real-time PCR); type: cell-based, human; settings: differentiating adipocytes transfected with oligomeric compound
# HSL = HSL mRNA expression in adipocytes (real-time PCR); type: cell-based, human; settings: differentiating adipocytes transfected with oligomeric compound
# Glut4 = Glut4 mRNA expression in adipocytes (real-time PCR); type: cell-based, human; settings: differentiating adipocytes transfected with oligomeric compound
# PPARγ = PPARγ mRNA expression in adipocytes (real-time PCR); type: cell-based, human; settings: differentiating adipocytes transfected with oligomeric compound
# PEPCK-c = PEPCK-c mRNA expression in HepG2 cells; type: cell-based, human; settings: 100 nM; for decrease in PEPCK-c mRNA: HepG2, basal (no insulin)
# Experimental: Approximately 28 hours after transfection, the cells are subjected to serum starvation for a period of 12 to 16 hours, using serum-free growth medium. Following serum starvation, cells are treated with 1 nM insulin (insulin-treated) or are left untreated (basal conditions) for approximately four hours. At the same time, untreated control cells in both plates are treated with 100 nM insulin to determine the maximal insulin response. Following insulin treatment (forty-eight hours after transfection), total RNA is harvested from all samples, and the amount of total RNA from each sample is determined using a Ribogreen assay (Invitrogen Corporation, Carlsbad, Calif.). Real-time PCR is performed on the total RNA samples using primer/probe sets for three insulin responsive genes: insulin-like growth factor binding protein-1 (IGFBP-1), cytosolic PEPCK (PEPCK-C), and follistatin. Gene expression levels obtained by real-time PCR are normalized for total RNA content in the samples.
# Oligomeric compounds of the present invention were tested for their effects on insulin signaling in HepG2 cells. HepG2 cells were plated at 7500 cells/well in collagen coated 96-well plates. The following day, cells were transfected with oligomeric compounds targeting miRNAs using 100 nM oligomeric compound in LIPOFECTIN™ (Invitrogen Corporation, Carlsbad, Calif.) in two 96-well plates. The oligomeric compounds were tested in triplicate on each 96-well plate, except for positive and negative controls, which were measured up to six times per plate. At the end of transfection, the transfection medium was replaced by regular growth medium. Twenty-eight hours post-transfection, the cells were subjected to overnight (sixteen to eighteen hours) serum starvation using serum free growth medium. Forty-four hours post-transfection, the cells in the transfected wells were treated with either no insulin (“basal” Experiment 1, for identification of insulin-mimetic compounds) or with 1 nM insulin (“insulin treated” Experiment 2, for identification of insulin sensitizers) for four hours. At the same time, in both plates, cells in some of the un-transfected control wells are treated with 100 nM insulin to determine maximal insulin response. At the end of the insulin or no-insulin treatment (forty-eight hours post-transfection), total RNA is isolated from both the basal and insulin treated (1 nM) 96-well plates, and the amount of total RNA from each sample is determined using a Ribogreen assay (Molecular Probes, Eugene, Oreg.). Real-time PCR is performed on all the total RNA samples using primer/probe sets for three insulin responsive genes: PEPCK-c, IGFBP-1 and follistatin. Expression levels for each gene are normalized to total RNA, and values+standard deviation are expressed relative to the transfectant only untreated control (UTC) and negative control compounds.
# Protocols for treatment of HepG2 cells and transfection of oligomeric compounds are as described in Example 18. Also as described in Example 18, forty-four hours post-transfection, the cells in the transfected wells were treated with either no insulin (“basal” Experiment 3 (below), for identification of insulin-mimetic compounds) or with 1 nM insulin (“insulin treated” Experiment 4 (below), for identification of insulin sensitizers) for four hours. At the same time, in both plates, cells in some of the un-transfected control wells are treated with 100 nM insulin to determine maximal insulin response. At the end of the insulin or no-insulin treatment (forty-eight hours post-transfection), total RNA is isolated from both the basal and insulin treated (1 nM) 96-well plates, and the amount of total RNA from each sample is determined using a Ribogreen assay (Molecular Probes, Eugene, Oreg.).
# [2] = 24 hours, relative to untreated control (UTC = 100)
# [3] = 48 hours after treatment, relative to untreated control (UTC=100)
substance,measurement,setting,value
327883 (antisense e[5mC]*eA*eG*eA*eA*e[5mC]*eT*eT*eA*eG*e[5mC]*e[5mC]*eA*e[5mC]*eT*eG*eT*eG*eA*eA) [compound 327883],"IL-12 mRNA expression, −IFN % UTC","IL-12 mRNA; 300 nM oligomeric compound and LPS, no IFN-gamma pretreatment, single experiment",266 % UTC
same,"IL-12 mRNA expression, +IFN % UTC","IL-12 mRNA; 300 nM oligomeric compound, stimulation with IFN-gamma and LPS, average of 2 experiments",39 % UTC
same,% Activity Relative to UTC (tube formation),HuVECs; Table 56,92.9%
327908 (antisense e[5mC]*eA*eA*eT*eG*e[5mC]*eA*eA*e[5mC]*eT*eA*e[5mC]*eA*eA*eT*eG*e[5mC]*eA*e[5mC]) [compound 327908],G1 (percentage of cells in phase of the cell cycle),[1],55.4%
same,G2/M (percentage of cells in phase of the cell cycle),[1],15.3%
same,S (percentage of cells in phase of the cell cycle),[1],29.2%
same,SubG1 (percentage of cells in phase of the cell cycle),[1],5.6%
same,aneuploid (percentage of cells),[1],13.1%
same,% cells aneuploid,HeLa cells; [2],114%
same,% cells in cell cycle phase G1,HeLa cells; [2],98%
same,% cells in cell cycle phase G2/M,HeLa cells; [2],106%
same,% cells in cell cycle phase S,HeLa cells; [2],99%
same,% cells in cell cycle phase subG1,HeLa cells; [2],138%
same,% cells in cell cycle phase: G1,HeLa cells; [3],99%
same,% cells in cell cycle phase: G2/M,HeLa cells; [3],105%
same,% cells in cell cycle phase: S,HeLa cells; [3],98%
same,% cells in cell cycle phase: aneuploid,HeLa cells; [3],93%
same,% cells in cell cycle phase: subG1,HeLa cells; [3],61%
same,% Activity Relative to UTC (tube formation),HuVECs; Table 57,103.5%
327909 (antisense e[5mC]*e[5mC]*e[5mC]*eA*eA*e[5mC]*eA*eA*e[5mC]*eA*eT*eG*eA*eA*eA*e[5mC]*eT*eA*e[5mC]*e[5mC]*eT*eA) [compound 327909],TG (triglyceride accumulation),adipocytes,132 percentage of untreated control (UTC)
same,AP2 mRNA,aP2,88 percentage of untreated control (UTC)
same,HSL mRNA,HSL,130 percentage of untreated control (UTC)
same,GLUT4 mRNA,Glut4,132 percentage of untreated control (UTC)
same,PPAR gamma mRNA,PPARγ,96 percentage of untreated control (UTC)
same,G1 (percentage of cells in phase of the cell cycle),[1],52.6%
same,G2/M (percentage of cells in phase of the cell cycle),[1],17.3%
same,S (percentage of cells in phase of the cell cycle),[1],30.1%
same,SubG1 (percentage of cells in phase of the cell cycle),[1],7.9%
same,aneuploid (percentage of cells),[1],16.3%
same,% Activity Relative to UTC (tube formation),HuVECs; Table 57,96.6%
327914 (antisense eG*e[5mC]*e[5mC]*e[5mC]*eT*eT*eT*eT*eA*eA*e[5mC]*eA*eT*eT*eG*e[5mC]*eA*e[5mC]*eT*eG) [compound 327914],G1 (percentage of cells in phase of the cell cycle),[1],55.8%
same,G2/M (percentage of cells in phase of the cell cycle),[1],15.3%
same,S (percentage of cells in phase of the cell cycle),[1],28.9%
same,SubG1 (percentage of cells in phase of the cell cycle),[1],8.5%
same,aneuploid (percentage of cells),[1],16.2%
same,% Activity Relative to UTC (tube formation),HuVECs; Table 57,82.8%
327968 (antisense e[5mC]*eA*eA*eT*eG*e[5mC]*eA*eA*e[5mC]*eA*eG*e[5mC]*eA*eA*eT*eG*e[5mC]*eA*e[5mC]) [compound 327968],TG (triglyceride accumulation),adipocytes; Table 75,94 percentage of untreated control (UTC)
same,aP2 mRNA,aP2; Table 75,67 percentage of untreated control (UTC)
same,HSL mRNA,HSL; Table 75,79 percentage of untreated control (UTC)
same,GLUT4 mRNA,Glut4; Table 75,85 percentage of untreated control (UTC)
same,PPAR gamma mRNA,PPARγ; Table 75,79 percentage of untreated control (UTC)
same,% Activity Relative to UTC (tube formation),HuVECs; Table 59,93.3%
CAGTGAATTCTACCAGTGCCATA (anti-miR; chemistry not fully specified) [ISIS 327899],decrease in PEPCK-c mRNA,PEPCK-c,58%
same,tube formation,HuVECs,suppressed tube formation
CGCGTACCAAAAGTAATAATG (anti-miR; chemistry not fully specified) [ISIS 327886],decrease in PEPCK-c mRNA,PEPCK-c,39%
same,tube formation,HuVECs,suppressed tube formation
GAGACCCAGTAGCCAGATGTAGCT (chemistry not given here) [ISIS 327920],reduction of PEPCK-c mRNA expression,"PEPCK-c; HepG2, 1 nM insulin",41%
same,decrease in PEPCK-c mRNA,PEPCK-c,48%
same,tube formation,HuVECs,suppressed tube formation
